According to US20160213742A1, “COMPOSITIONS AND METHODS FOR THE TREATMENT OF FUNGAL INFECTIONS” (priority 2013, published 2016):
“Also recorded” adds a separate entry of the source. Starred links: 1 amine or outer side, 2 acyl side, 3 side chain; linkers in the order of their positions; H or OH if unused. Positions of bridges follow the written chain, without caps; N, C: chain ends. Non-standard residues stand in square brackets, D forms with d. Residues, ends and D or L forms follow the SMILES beside them. Groups on a side chain read outwards from the residue. *: point of attachment. Orn(4R-OH,5R-OCH2CH2NMe3+) = C[N+](C)(C)CCO[C@@H](N[*:3])[C@H](O)C[C@H](N[*:1])C(=O)[*:2]; pTerphenylCO(4''-OnC5H11) = CCCCCOc1ccc(-c2ccc(-c3ccc(C(=O)*)cc3)cc2)cc1; X1 = O=C([C@@H](N[*:1])[C@H](O)[C@@H](O)c1ccc(O)c(N[*:3])c1)[*:2]; Pro(3S-OH,4S-Me) = C[C@H]1CN[C@H](C(=O)O)[C@H]1O; Hyp = O=C(O)[C@@H]1C[C@@H](O)CN1; βAla = NCCC(=O)O; For = O=C*

Key:
Assay type in all cases: cell-based
[1] = tested on: Neutrophils purified from human peripheral blood; assay: Human Neutrophil Transwell Migration Assay; details: 37° C., 45 minutes, % of the maximum migration possible
From the text: Neutrophils were purified from human peripheral blood utilizing PolymorphPrep. Red blood cells were lysed with a lysis buffer and the cells were washed, counted and resuspended in assay buffer. Neutrophils (approximately 50,000 to 100,000 in number) were placed over 5-micon pore sized transwell plates in 24-well format with test compounds in the bottom chamber of each well. A negative control of media alone in the bottom chamber was set up in triplicate. A positive control where the neutrophils were added directly to the bottom well was set up in triplicate.
The plates were incubated at 37° C. for 45 minutes to allow for migration. After this time, migration was confirmed visually and then an aliquot (⅙^th of total cells) from each well was taken for ATP detection via luminescence with ATPlite (PerkinElmer) to quantify the number of migrated cells. The averaged reading for random migration detected in the negative control was subtracted from all readings to obtain the corrected migration number. These numbers were then divided by the averaged reading from the positive control to get the % Neutrophil Migration of the maximum migration possible.

[2] = tested on: C. krusei ATCC 14243; details: C. krusei ATCC 14243; read at 50% growth inhibition for echinocandins (24 h), 100% for amphotericin B (48 h)
Method: (§1) MIC and MEC assays were run as described in Example 31 with the following exceptions. Starting solutions of all antifungal agents were prepared in 100% DMSO. Stock concentrations were made at 50× the highest final assay concentration and serially diluted 2-fold, 16 times in a 96-well PCR plate (VWR 83007-374). Candida and Aspergillus suspensions from Sabouraud dextrose agar plate cultures were prepared in 0.85% saline at 0.5 McFarland standard (˜0.1 OD530 nm). Candida suspensions were diluted 1:500 in RPMI (MP Biomedicals, cat no. 1060124; buffered with MOPS and adjusted with NaOH to pH 7.0) to a concentration of ˜0.5-2.5×10^3 CFU/mL and Aspergillus suspensions were diluted 1:50 in RPMI to 0.4-5×10^4 CFU/mL final concentration. 98 μL of each cell suspension in RPMI were added to test wells in a 96-well assay plate (Costar cat. no. 3370). A Beckman Multimek 96 liquid handling robot was used to dispense 2 μL of each 50× stock compound into the plate containing 98 μL of each strain in RPMI (2% final solvent concentration). Plates were shaken then incubated at 35° C. for 24-48 h prior to reading. MIC values were read visually at 50% growth inhibition for echinocandins (24 h) and at 100% growth inhibition for amphotericin B (48 h). MEC values (24 h) were read with the aid of a microscope at the lowest echinocandin concentration where rounded/compact hyphal morphology was observed.

[3] = tested on: C. albicans ATCC 90028; details: C. albicans ATCC 90028; read at 50% growth inhibition for echinocandins (24 h), 100% for amphotericin B (48 h)
Method: as §1

[4] = tested on: C. glabrata ATCC 90030; details: C. glabrata ATCC 90030; read at 50% growth inhibition for echinocandins (24 h), 100% for amphotericin B (48 h)
Method: as §1

[5] = tested on: C. tropicalis ATCC 750; details: C. tropicalis ATCC 750; read at 50% growth inhibition for echinocandins (24 h), 100% for amphotericin B (48 h)
Method: as §1

[6] = tested on: C. parapsilosis ATCC 22019; details: C. parapsilosis ATCC 22019; read at 50% growth inhibition for echinocandins (24 h), 100% for amphotericin B (48 h)
Method: as §1

[7] = tested on: A. flavus ATCC MYA-3631; assay: MEC assay (Example 32); details: MEC values (24 h), rounded/compact hyphal morphology
Method: as §1

[8] = tested on: A. fumigatus MYA-3626; assay: MEC assay (Example 32); details: MEC values (24 h), rounded/compact hyphal morphology
Method: as §1

[9] = tested on: A. niger ATCC 16404; assay: MEC assay (Example 32); details: MEC values (24 h), rounded/compact hyphal morphology
Method: as §1

[10] = tested on: A. fumigatus ATCC 13073; assay: MEC assay (Example 32); details: MEC values (24 h), rounded/compact hyphal morphology
Method: as §1

[11] = tested on: A. fumigatus MYA-4609; assay: MEC assay (Example 32); details: MEC values (24 h), rounded/compact hyphal morphology
Method: as §1

[12] = tested on: human neutrophils; assay: Microfluidic Neutrophil Chemotaxis assay; details: for neutrophil (NF) migration counts (FIG. 1): 4 hour timepoint, relative to A. fumigatus alone
From the text: Two layers of photoresist (SU8; […] The wafer with patterned photoresist was used as a mold to produce polydimethylsiloxane (PDMS) (Fisher Scientific) devices, which were then bonded to the base of glass-bottom 12- or 24-well plates, using an oxygen plasma machine (Nordson-March). De-identified, fresh human blood samples from healthy volunteers, aged 18 years and older, who were not receiving immunosuppressants, were purchased from Research Blood Components, LLC. Peripheral blood was drawn in tubes containing a final concentration of 5 mM EDTA (Vacutainer; Becton Dickinson) and processed within 2 h of blood collection. Using a sterile technique, neutrophils were isolated from whole blood using HetaSep followed by the EasySep Human Neutrophil Enrichment Kit (STEMCELL Technologies) following the manufacturer's protocol. The purity of neutrophils was assessed to be >98% using the Sysmex KX-21N Hematology Analyzer (Sysmex America, Inc.). White blood cells were isolated using Hetasep followed by a 5 min spin down and wash with 1×PBS. White blood cells were stained with Hoechst (32.4 μM) (Sigma) following the manufacture's protocols. The final aliquots of white blood cells were resuspended in RPMI plus 10% fetal bovine serum (FBS−stock 50 mL FBS/450 mL RPMI) (Sigma-Aldrich) at a concentration of 20,000 cells/2 μL and kept at 37° C. Cells were then immediately introduced into the microfluidic device for the chemotaxis and Aspergillus fumigatus killing assay. All experiments were repeated at least three times with neutrophils or white blood cells from three different healthy donors. Immediately after bonding to the well plate, donut-shaped devices were filled with Aspergillus fumigatus conidia at a concentration of 10^6 cells/mL with or without either Compound 1 or Compound 11 [10 nM], caspofungin acetate [10 nM] and/or a solution of the chemoattractant N-formyl-methionyl-leucyl-phenylalanine (fMLP) [100 nM](Sigma-Aldrich, St. Louis, Mo.). The device was then placed in a vacuum for 15 min. The solution filled all of the FCCs as the air was displaced. The devices were then vigorously washed five times with 1×PBS to remove any residual Aspergillus fumigatus conidia, drug or chemoattractant that was outside of the FCCs. The device was then submerged in 0.5 mL of cell media. Neutrophils or white blood cells (20,000 cells/2 μL) were then pipetted into the cell loading chamber (CLC) using a gel-loading pipette tip. […] Image analysis of cell migration counts and fungi growth was analyzed by hand using Image J software. Neutrophil counts per chamber were counted every 15 min for the first 2 hours of the experiment and then every hour for the remaining 16 hours. Percentage of conidia that converted to hyphal growth was measured by counting conidia loaded per chamber before neutrophils or WBCs were loaded into the chamber and counting numbers of these conidia that grew hyphae by 18 hours. Fungal growth velocity was calculated using Image J. The 16 chambers in each device (n=3) were analyzed for at least three different healthy donors.

[13] = tested on: Aspergillus fumigatus strain AF293; assay: Microfluidic Aspergillus fumigatus Killing Assay with human neutrophils
From the text: Microfluidic devices used to measure leukocyte migration in response to Aspergillus fumigatus with or without drug (Compound 1 or Compound 11), antifungal control (caspofungin acetate) and/or chemoattractant (fMLP) were manufactured using known microfabrication techniques. Two layers of photoresist (SU8; Microchem), the first one 10 μm thin (corresponding to the migration channels) and the second one 70 μm thick, corresponding to the focal chemotactic chambers (FCCs) were patterned on one silicon wafer sequentially using two photolithographic masks and processing cycles according to the instructions from the manufacturer. The wafer with patterned photoresist was used as a mold to produce polydimethylsiloxane (PDMS) (Fisher Scientific) devices, which were then bonded to the base of glass-bottom 12- or 24-well plates, using an oxygen plasma machine (Nordson-March).
Aspergillus fumigatus strain AF293 expressing either cytosolic red fluorescent protein (RFP) or green fluorescent protein (GFP) was grown on Sabouraud dextrose agar plates supplemented with 100 μg/mL ampicillin at 30° C. for 3-4 days. Conidia were harvested by gentle scraping followed by washing in ice-cold phosphate buffered saline (PBS) three times. Conidia were immediately used or stored at 4° C. for use within one week.
De-identified, fresh human blood samples from healthy volunteers, aged 18 years and older, who were not receiving immunosuppressants, were purchased from Research Blood Components, LLC. Peripheral blood was drawn in tubes containing a final concentration of 5 mM EDTA (Vacutainer; Becton Dickinson) and processed within 2 h of blood collection. Using a sterile technique, neutrophils were isolated from whole blood using HetaSep followed by the EasySep Human Neutrophil Enrichment Kit ([…] Technologies) following the manufacturer's protocol. The purity of neutrophils was assessed to be >98% using the Sysmex KX-21N Hematology Analyzer (Sysmex America, Inc.). White blood cells were isolated using Hetasep followed by a 5 min spin down and wash with 1×PBS. White blood cells were stained with Hoechst (32.4 μM) (Sigma) following the manufacture's protocols. The final aliquots of white blood cells were resuspended in RPMI plus 10% fetal bovine serum (FBS−stock 50 mL FBS/450 mL RPMI) (Sigma-Aldrich) at a concentration of 20,000 cells/2 μL and kept at 37° C. Cells were then immediately introduced into the microfluidic device for the chemotaxis and Aspergillus fumigatus killing assay. All experiments were repeated at least three times with neutrophils or white blood cells from three different healthy donors.
Immediately after bonding to the well plate, donut-shaped devices were filled with Aspergillus fumigatus conidia at a concentration of 10^6 cells/mL with or without either Compound 1 or Compound 11 [10 nM], caspofungin acetate [10 nM] and/or a solution of the chemoattractant N-formyl-methionyl-leucyl-phenylalanine (fMLP) [100 nM](Sigma-Aldrich, St. Louis, Mo.). The device was then placed in a vacuum for 15 min. The solution filled all of the FCCs as the air was displaced. The devices were then vigorously washed five times with 1×PBS to remove any residual Aspergillus fumigatus conidia, drug or chemoattractant that was outside of the FCCs. The device was then submerged in 0.5 mL of cell media. Neutrophils or white blood cells (20,000 cells/2 μL) were then pipetted into the cell loading chamber (CLC) using a gel-loading pipette tip. Neutrophil migration into the migration channel toward the FCC started immediately and was recorded using time-lapse imaging on a fully automated Nikon TiE microscope (10× magnification) with biochamber heated to 37° C. with 5% carbon dioxide gas. Image analysis of cell migration counts and fungi growth was analyzed by hand using Image J software.
Image analysis of cell migration counts and fungi growth was analyzed by hand using Image J software.

SMILES: CCCCCOc1ccc(-c2ccc(-c3ccc(C(=O)N[C@H]4C[C@@H](O)[C@@H](OCC[N+](C)(C)C)NC(=O)[C@@H]5[C@@H](O)[C@@H](C)CN5C(=O)[C@H]([C@@H](C)O)NC(=O)[C@H]([C@H](O)[C@@H](O)c5ccc(O)c(NC(=O)CCNC(=O)[C@H](Cc6ccccc6)NC(=O)[C@H](CC(C)C)NC(=O)[C@H](CCSC)NC=O)c5)NC(=O)[C@@H]5C[C@@H](O)CN5C(=O)[C@H]([C@@H](C)O)NC4=O)cc3)cc2)cc1.O=C[O-] [Compound 31] ({pTerphenylCO(4''-OnC5H11)}-[Orn(4R-OH,5R-OCH2CH2NMe3+)]T[Hyp][X1]([βAla-Phe-Leu-Met-For])T[Pro(3S-OH,4S-Me)]; lactam 1-C)
- % Neutrophil Migration ([1]; conc 0.001 μg/mL): 126.4%
- % Neutrophil Migration ([1]; conc 0.01 μg/mL): 115.7%
- % Neutrophil Migration ([1]; conc 0.1 μg/mL): 146.0%
- % Neutrophil Migration ([1]; conc 1 μg/mL): 134.3%
- % Neutrophil Migration ([1]; conc 10 μg/mL): 64.0%
- MIC [2]: 0.5 µg/mL
- MIC [3]: 0.5 µg/mL
- MIC [4]: 2 µg/mL
- MIC [5]: 0.25 µg/mL
- MIC [6]: 0.5 µg/mL
- MEC [7]: 0.06 µg/mL
- MEC [8]: 0.06 µg/mL
- MEC [9]: 0.25 µg/mL
- MEC [10]: 0.015 µg/mL
- MEC [11]: 0.03 µg/mL

SMILES: CSCC[C@H](NC=O)C(=O)N[C@@H](CC(C)C)C(=O)N[C@@H](Cc1ccccc1)C(=O)O [fMLP, N-formyl-methionyl-leucyl-phenylalanine, reference compound]
- neutrophil (NF) migration counts (FIG. 1) ([12]; 100 nM fMLP alone, no A. fumigatus): increased NF migration
- neutrophil (NF) migration counts (FIG. 1) ([12]; in the presence of Aspergillus fumigatus, Compound 1, Compound 11, caspofungin acetate 10 nM, fMLP 100 nM): increased NF migration
- timecourse of neutrophil (PMNs) migration in FCCs (FIG. 4) ([12]; with A. fumigatus, three healthy blood donors, t=0, 8, and 16 hours): migration of PMNs
- timecourse of A. fumigatus (Af) growth in FCCs (FIG. 4) ([13]; in presence of PMNs, three healthy blood donors, t=0, 8, and 16 hours): inhibition of growth of Af
- percent hyphal growth compared to remaining conidia (FIG. 2) ([13]; with added neutrophils (NFs), Compound 1, Compound 11, caspofungin acetate 10 nM, fMLP 100 nM, hyphae by 18 hours): inhibition of Aspergillus fumigatus hyphal growth; also recorded: able to suppress hyphal growth
